In patent publication US9102637B2, “Bicyclic thiazole compounds” (CARNA BIOSCIENCES INC., priority 2013, dated 2015) one finds IC50 data, which are given here for 26 compounds.

A word on the IC50: it is the concentration at which inhibition is half-maximal.

SMILES strings stand for the structures.

Sequence of human TNIK (N-terminal segment, TNIK_N, residues 1-314) (Q9UKE5 1-314): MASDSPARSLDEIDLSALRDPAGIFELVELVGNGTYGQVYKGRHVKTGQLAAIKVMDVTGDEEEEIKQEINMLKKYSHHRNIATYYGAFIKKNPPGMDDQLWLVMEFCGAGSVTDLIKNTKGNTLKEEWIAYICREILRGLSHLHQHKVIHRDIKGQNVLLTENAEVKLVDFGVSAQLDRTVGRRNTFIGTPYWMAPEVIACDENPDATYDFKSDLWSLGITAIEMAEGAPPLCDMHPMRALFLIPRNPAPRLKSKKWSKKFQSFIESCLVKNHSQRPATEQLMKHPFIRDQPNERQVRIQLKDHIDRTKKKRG

This assay concerns the target human TNIK (N-terminal segment, TNIK_N, residues 1-314) (Homo sapiens (Human), UniProt Q9UKE5). Nature of the assay: TNIK kinase assay (mobility shift). It counts as biochemical. The following applies: TNIK_N kinase activity, 25 μM ATP, 1 h at room temperature. An excerpt: Preparation of Recombinant Human TNIK (N-Terminal Segment):
A cDNA encoding the N-terminal segment (TNIK_N, residues 1-314) containing the kinase domain of human TNIK (NM_015028.1) was amplified from cDNA mixture synthesized from human tissue (Biochain) by PCR using the following primers.
The cDNA was subcloned into baculovirus transfer vector pFastBac_GSTb that includes protease cleavage site and glutathione S-transferase purification tag (GST-tag). The plasmid was purified and the insertion of the pFastBac_GSTb-TNIK_N was confirmed by DNA sequencing. Then E. coli DH10Bac competent cells were transformed with the plasmid to prepare the recombinant bacmid according to the instructions for the Bac-to-Bac™ baculovirus expression systems (Invitrogen). The Sf9 cells were transfected with the recombinant bacmid containing pFastBac_GSTb-TNIK_N using Cellfectin Reagent (Invitrogen) in SF-9001I serum free media (Invitrogen). The viral supernatant was collected from the medium 72 h after transfection. The virus was amplified three times by infecting actively growing Sf9 or Sf21 cells in Grace's insect media (Invitrogen) supplemented with 10% FCS and an antibiotic-antimycotic reagent (Invitrogen) for 72 h at 27° C. in T-flask or roller bottles. The titer of amplified TNIK_N virus was estimated at 2.36×10^8 pfu/ml by using BacPAK™ Baculovirus Rapid Titer kit (Clontech).
Log-phase Sf21 cells (2×10^6 cells/ml) in the Grace's insect media were infected with the recombinant baculovirus at MOI of 3.0 and incubated in roller bottles (250 ml media per bottle) for 72 h at 27° C., after which, the cells were collected by centrifugation, and the cell pellet washed with cold PBS and kept at −80° C. until purification. The following purification procedures were carried out at 4° C. The frozen cells were thawed on ice and lysed in lysis buffer (50 mM Tris-HCl, pH 7.5, 150 mM NaCl, 1% Nonidet P-40, 5 mM DTT, 0.5 mM EDTA, 0.5 mM EGTA) supplemented with 1 mM phenylmethansulfonylfluoride, 2 μg/ml leupeptin, 2 μg/ml aprotinin, 1 mM NaF, 100 μM sodium orthovanadate, and 1 μM cantharidin by sonication. The suspended lysate was cleared by centrifugation at 9000g for 20 min and the supernatant was incubated for 1 h with glutathione Sepharose beads (GE Healthcare). The beads were suspended in buffer-H (50 mM Tris-HCl, pH 7.5, 1 M NaCl, 1 mM DTT, 0.5 mM EDTA, 0.5 mM EGTA and 0.05% Brij35) and washed with buffer-H followed by buffer-L (50 mM Tris-HCl, pH 7.5, 150 mM NaCl, 1 mM DTT, 0.5 mM EDTA, 0.5 mM EGTA, 0.05% Brij35) in an Econo-pack column (BIO-RAD). The bound TNIK_N was eluted with elution buffer (50 mM Tris-HCl, pH 8.0, 150 mM NaCl, 1 mM DTT, 10% glycerol, 0.5 mM EDTA, 0.5 mM EGTA and 5 mM reduced glutathione). The eluted fractions were collected and determined the protein concentration by Bradford reagent (BIO-RAD). The TNIKN fractions were pooled and desalted using 10DG column (BIORAD) equilibrated with the storage buffer (50 mM Tris-HCl, pH 7.5, 150 mM NaCl, 1 mM DTT, 10% glycerol, 0.05% Brij35). The purified TNIKN was characterized by electrophoresis using 4-20% polyacrylamide gels and matrix-assisted laser desorption/ionization reflection time-of-flight (MALDI-TOF) mass spectrometry on a Voyager-DE RP MALDI/TOF (Applied Biosystems). TNIK_N was confirmed by the molecular weight and. MASCOT Peptide Mass Fingerprint.
The kinase assays were conducted in a 20 μl volume using 384-well plates (Greiner). The reaction mixture consists of compound or vehicle (1% DMSO), 0.08 ng/μl TNIK_N, 1 μM FITC-labeled substrate peptides, including E-aminocaproic acid and 7 amino acids (described as SEQ ID NO.3 in “Kinase assay of TEST EXAMPLE 1” of WO 2010/064111(P.31)), 20 mM Hepes, pH 7.5, 0.01% Triton X-100, 5 mM MgCl2, 25 μM ATP and 2 mM DTT. As blank, TNIK N was excluded from the reaction mixture of vehicle (1% DMSO). […]
On to `NC(=O)c1nc(Nc2ccc3ccccc3c2)sc1NC(=O)c1ccc(CN2CC[C@H](N)C2)cc1` [Example 220, (S)-5-{4-[(3-aminopyrrolidin-1-yl)methyl]benz-amido}-2-(naphthalen-2-ylamino)thiazole-4-carbox-amide], for which the IC50 is 3 nM.

Take `NC(=O)c1nc(Nc2ccc3ccccc3c2)sc1NC(=O)c1ccc(Cn2cnc([N+](=O)[O-])n2)cc1` [Example 243, 2-(naphthalen-2-ylamino)-5-{4-[(3-nitro-1H-1,2,4-triazol-1-yl)methyl]benzamido}thiazole-4-carbox-amide]: the IC50 came to 14.8 nM.

Regarding `NC(=O)c1nc(Nc2ccc3ccccc3c2)sc1NC(=O)c1csc(Cn2ccnc2)c1` [Example 258, 5-{5-[(1H-imidazol-1-yl)methyl]thiophene-3-carboxamido}-2-(naphthalen-2-ylamino)thiazole-4-carboxamide], the IC50 was 8.7 nM.

As to `C[C@@H](O)CNc1ccc(C(=O)Nc2sc(Nc3ccc4ccccc4c3)nc2C(N)=O)cc1` [Example 147, (R)-5-{4-[(2-hydroxypropyl)amino]benzamido}-2-(naphthalen-2-ylamino)thiazole-4-carboxamide], the 50% inhibitory concentration (IC50) was 16.8 nM.

Regarding `C[C@H](O)CNc1ccc(C(=O)Nc2sc(Nc3ccc4ccccc4c3)nc2C(N)=O)cc1` [Example 146, (S)-5-{4-[(2-hydroxypropyl)amino]benzamido}-2-(naphthalen-2-ylamino)thiazole-4-carboxamide], the IC50 turned out to be 15.1 nM.

Consider `NC(=O)c1nc(Nc2ccc3ccccc3c2)sc1NC(=O)c1ccc[nH]1` [Example 33, 2-(naphthalen-2-ylamino)-5-(1H-pyrrole-2-carbox-amido)thiazole-4-carboxamide], for which the IC50 worked out at 7.5 nM.

In the case of `C#CC(=O)Nc1sc(Nc2ccc3ccccc3c2)nc1C(N)=O` [Example 204, 2-(naphthalen-2-ylamino)-5-propiolamidothiazole-4-carboxamide], the IC50 was 6 nM.

With `NC(=O)c1nc(Nc2ccc3ccc(F)cc3c2)sc1NC(=O)c1ccc(Cn2ccnc2)cc1` [Example 262, 5-{4-[(1H-imidazol-1-yl)methyl]benzamido}-2-[(7-fluoronaphthalen-2-yl)amino]thiazole-4-carbox-amide], the IC50 is 8.4 nM.

For the compound `NC(=O)c1nc(Nc2ccc3ccccc3c2)sc1NC(=O)c1ccc(CN2CCC(O)CC2)cc1` [Example 173, 5-{4-[(4-hydroxypiperidin-1-yl)methyl]benzamido}-2-(naphthalen-2-ylamino)thiazole-4-carbox-amide], the IC50 was found to be 3.4 nM.

For `NC(=O)c1nc(Nc2cccc3cccnc23)sc1NC(=O)c1ccc(Cn2ccnc2)cc1` [Example 259, 5-{4-[(1H-imidazol-1-yl)methyl]benzamido}-2-(quinolin-8-ylamino)thiazole-4-carboxamide], the IC50 was 5.5 nM.

Consider `NC(=O)c1nc(Nc2ccc3ccc(F)cc3c2)sc1NC(=O)C1CC1` [Example 122, 5-(cyclopropanecarboxamido)-2-[(7-fluoro-naphthalen-2-yl)amino]thiazole-4-carboxamide], for which the IC50 stood at 12.8 nM.

As for `Cc1ccc(C(=O)Nc2sc(Nc3ccc4cc(CO)ccc4c3)nc2C(N)=O)s1` [Example 151, 2-{[6-(hydroxymethyl)naphthalen-2-yl]amino}-5-(5-methylthiophene-2-carboxamido)thiazole-4-carboxamide], the IC50 stood at 11.1 nM.

Turning to `NC(=O)c1nc(Nc2ccnc3ccccc23)sc1NC(=O)c1ccc(Cn2ccnc2)cc1` [Example 255, 5-{4-[(1H-imidazol-1-yl)methyl]benzamido}-2-(quinolin-4-ylamino)thiazole-4-carboxamide], the IC50 was 26.5 nM.

For the compound `NC(=O)c1nc(Nc2ccc3ccccc3c2)sc1NC(=O)C1CC1` [Example 93, 5-(cyclopropanecarboxamido)-2-(naphthalen-2-yl-amino)thiazole-4-carboxamide], the IC50 was 15 nM.

As to `CN(CCO)c1ccc(C(=O)Nc2sc(Nc3ccc4ccccc4c3)nc2C(N)=O)cc1` [Example 29, 5-{4-[(2-hydroxyethyl)methylamino]benzamido}-2-(naphthalen-2-ylamino)thiazole-4-carboxamide], the IC50 turned out to be 27.4 nM.

In the case of `NC(=O)c1nc(Nc2ccc3ccccc3c2)sc1NC(=O)C#CCCCn1cncn1` [Example 233, 5-[6-(1H-1,2,4-triazol-1-yl)hex-2-ynamido]-2-(naphthalen-2-ylamino)thiazole-4-carboxamide], the IC50 turned out to be 10.7 nM.

On to `NC(=O)c1nc(Nc2ccc3ccccc3c2)sc1NC(=O)c1ccc(CN2CC[C@H](O)C2)cc1` [Example 203, (S)-5-{4-[(3-hydroxypyrrolidin-1-yl)methyl]benzamido}-2-(naphthalen-2-ylamino)thiazole-4-carboxamide], for which the IC50 came to 5 nM.

With `NC(=O)c1nc(Nc2ccc3ccccc3c2)sc1NC(=O)c1ccc(CN2CCC(N)CC2)cc1` [Example 222, 5-{4-[(4-aminopiperidin-1-yl)methyl]benzamido}-2-(naphthalen-2-ylamino)thiazole-4-carboxamide], the IC50 came to 1.3 nM.

With `Cc1noc(Cc2ccc(C(=O)Nc3sc(Nc4ccc5ccccc5c4)nc3C(N)=O)cc2)n1` [Example 256, 5-{4-[(3-methyl-1,2,4-oxadiazol-5-yl)methyl]benzamido}-2-(naphthalen-2-ylamino)thiazole-4-carboxamide], the IC50 turned out to be 18.5 nM.

On to `NC(=O)c1nc(Nc2ccc3ccccc3c2)sc1NC(=O)c1ccc(CN2CCCCC2CO)cc1` (centres unmarked) [Example 189, 5-(4-{[2-(hydroxymethyl)piperidin-1-yl]methyl}benzamido)-2-(naphthalen-2-ylamino)thiazole-4-carboxamide], for which the IC50 worked out at 6.8 nM.

On to `NC(=O)c1nc(Nc2ccc3cc(CO)ccc3c2)sc1NC(=O)C1CC1` [Example 138, 5-(cyclopropanecarboxamido)-2-{[6-(hydroxy-methyl)naphthalen-2-yl]amino}thiazole-4-carbox-amide], for which the IC50 was determined as 5.8 nM.

In the case of `NC(=O)c1nc(Nc2ccc3ccccc3c2)sc1NC(=O)c1ccc(Cn2ccnc2)s1` [Example 251, 5-{5-[(1H-imidazol-1-yl)methyl]thiophene-2-carboxamido}-2-(naphthalen-2-ylamino)thiazole-4-carboxamide], the IC50 came out at 7.7 nM.

On to `NC(=O)c1nc(Nc2cccc3ncccc23)sc1NC(=O)c1ccc(Cn2ccnc2)cc1` [Example 254, 5-{4-[(1H-imidazol-1-yl)methyl]benzamido}-2-(quinolin-5-ylamino)thiazole-4-carboxamide], for which the IC50 is 4.8 nM.

Regarding `CC(C)=CC(=O)Nc1sc(Nc2ccc3cc(CO)ccc3c2)nc1C(N)=O` [Example 139, 2-{[6-(hydroxymethyl)naphthalen-2-yl]amino}-5-(3-methylbut-2-enamido)thiazole-4-carboxamide], the IC50 was 1.6 nM.

In the case of `NC(=O)c1nc(Nc2ccc3ccccc3c2)sc1NC(=O)c1ccc(CN2CC[C@@H](O)C2)cc1` [Example 202, (R)-5-{4-[(3-hydroxypyrrolidin-1-yl)methyl]benzamido}-2-(naphthalen-2-ylamino)thiazole-4-carboxamide], the IC50 was found to be 5.5 nM.

Take `CC(C)=CC(=O)Nc1sc(Nc2ccc3ccc(F)cc3c2)nc1C(N)=O` [Example 128, 2-[(7-fluoronaphthalen-2-yl)amino]-5-(3-methyl-but-2-enamido)thiazole-4-carboxamide]: the IC50 turned out to be 7.2 nM.
